Data on one compound can be found in paper PMC6747015, “Structure–function study of a novel inhibitor of the casein kinase 1 family in Arabidopsis thaliana” (Plant Direct, 2019).

One assay deals with T1, CKL2 (AT1G72710) (Arabidopsis thaliana, UniProt Q9CAI5).
T1 construct: from tissue; host or cells: Arabidopsis seedlings, two weeks old
Description: AMI‐329 bead binding with AMI‐331 competitor, CKL2. As to the method:
(§1) Screening for proteins bound to AMI‐329 beads was done by a method similar to what has previously been described (Uehara et al., 2019). Briefly, two‐week‐old seedlings grown under LD conditions were harvested at time points ZT2, ZT6, ZT9, and ZT17, and stored at −80°C. Proteins from the frozen plant samples were incubated with 0, 5, or 50 µM of AMI‐331 at 4°C for 30 min with rotary mixing. Two technical replicates were used for each experiment. PBS‐washed AMI‐329 beads were added to the protein samples and gently rotated at 4°C for 1 hr. AMI‐329 bead resins were washed with bead buffer (Uehara et al., 2019) six times. The washed resins were suspended in SDS sample buffer and boiled for 8 min. Protein samples were in‐gel‐digested as previously described (Uehara et al., 2019). Peptides were analyzed with a Q Exactive hybrid quadrupole‐orbitrap mass spectrometer (Thermo Fisher Scientific), as described previously (Uehara et al., 2019). […]
(§2) However, another possible mechanism for the strong AMI‐331 biological activity in vivo is that it targets proteins other than the CK1 family for period lengthening. […] It is noteworthy that kinase AT4G08800 is very similar to the CKL family, but the ATP‐binding pocket of mammalian CK1 as determined by its crystal structure (Shinohara et al., 2017) was absent from AT4G08800, as shown in an Araport 11 model (https://www.araport.org). […]

In a further assay the target is T2, CKL4 (AT4G28860) (Arabidopsis thaliana, UniProt Q8LPI7).
T2 construct: from tissue; host or cells: Arabidopsis seedlings, two weeks old
T2 sequence (Q8LPI7 whole entry): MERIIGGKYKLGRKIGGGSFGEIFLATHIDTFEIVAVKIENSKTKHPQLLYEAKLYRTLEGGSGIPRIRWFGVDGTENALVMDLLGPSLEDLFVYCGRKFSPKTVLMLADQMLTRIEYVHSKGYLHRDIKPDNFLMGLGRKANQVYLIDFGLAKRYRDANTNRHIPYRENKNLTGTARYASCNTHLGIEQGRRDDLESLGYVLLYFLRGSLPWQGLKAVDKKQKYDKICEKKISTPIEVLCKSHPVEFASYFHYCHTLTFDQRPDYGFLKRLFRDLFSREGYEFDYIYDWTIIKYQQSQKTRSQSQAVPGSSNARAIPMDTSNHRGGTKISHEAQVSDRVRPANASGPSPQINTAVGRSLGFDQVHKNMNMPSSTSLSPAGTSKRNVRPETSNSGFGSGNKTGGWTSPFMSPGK
Description: AMI‐329 bead binding with AMI‐331 competitor, CKL4. As to the method: as §1, §2

A further assay deals with T3, CKL7 (AT5G44100) (Arabidopsis thaliana, UniProt Q9FFH8).
T3 construct: from tissue; host or cells: Arabidopsis seedlings, two weeks old
T3 sequence (Q9FFH8 whole entry): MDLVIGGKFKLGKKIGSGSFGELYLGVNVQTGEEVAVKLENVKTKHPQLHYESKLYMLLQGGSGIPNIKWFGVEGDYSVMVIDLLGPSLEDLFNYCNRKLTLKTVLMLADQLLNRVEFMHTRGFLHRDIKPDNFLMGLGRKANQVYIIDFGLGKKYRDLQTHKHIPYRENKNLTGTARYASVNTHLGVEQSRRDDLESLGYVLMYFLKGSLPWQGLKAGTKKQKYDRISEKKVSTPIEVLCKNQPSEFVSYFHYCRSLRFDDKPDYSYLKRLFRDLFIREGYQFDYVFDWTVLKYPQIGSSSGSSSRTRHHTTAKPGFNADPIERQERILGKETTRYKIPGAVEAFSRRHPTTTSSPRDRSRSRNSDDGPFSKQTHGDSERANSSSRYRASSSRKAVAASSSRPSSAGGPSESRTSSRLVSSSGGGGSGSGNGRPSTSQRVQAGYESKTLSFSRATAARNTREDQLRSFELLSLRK
Kind of assay: AMI‐329 bead binding with AMI‐331 competitor, CKL7. As to the method:
as §1, §2

In a further assay the test system is MPK family. Kind of assay: AMI‐329 bead binding with AMI‐331 competitor, MPK family. Further details: species or system Arabidopsis thaliana. As to the method:
Screening for proteins bound to AMI‐329 beads was done by a method similar to what has previously been described (Uehara et al., 2019). Briefly, two‐week‐old seedlings grown under LD conditions were harvested at time points ZT2, ZT6, ZT9, and ZT17, and stored at −80°C. Proteins from the frozen plant samples were incubated with 0, 5, or 50 µM of AMI‐331 at 4°C for 30 min with rotary mixing. Two technical replicates were used for each experiment. PBS‐washed AMI‐329 beads were added to the protein samples and gently rotated at 4°C for 1 hr. AMI‐329 bead resins were washed with bead buffer (Uehara et al., 2019) six times. The washed resins were suspended in SDS sample buffer and boiled for 8 min. Protein samples were in‐gel‐digested as previously described (Uehara et al., 2019). Peptides were analyzed with a Q Exactive hybrid quadrupole‐orbitrap mass spectrometer (Thermo Fisher Scientific), as described previously (Uehara et al., 2019). MS/MS spectra were interpreted, and peak lists were generated using Proteome Discoverer 2.0.0.802 (Thermo Fisher Scientific). Searches were performed using SEQUEST (Thermo Fisher Scientific) against the Arabidopsis thaliana (TAIR TaxID = 3,702) peptide sequence database. […]
To examine other potential targets of AMI‐331, we analyzed the spectra for PHA767491 target proteins (Uehara et al., 2019). […]

The target in a further assay is T4, CKL12 (AT5G57015) (Arabidopsis thaliana, UniProt Q8VYK9).
T4 construct: from tissue; host or cells: Arabidopsis seedlings, two weeks old
T4 sequence (Q8VYK9 whole entry): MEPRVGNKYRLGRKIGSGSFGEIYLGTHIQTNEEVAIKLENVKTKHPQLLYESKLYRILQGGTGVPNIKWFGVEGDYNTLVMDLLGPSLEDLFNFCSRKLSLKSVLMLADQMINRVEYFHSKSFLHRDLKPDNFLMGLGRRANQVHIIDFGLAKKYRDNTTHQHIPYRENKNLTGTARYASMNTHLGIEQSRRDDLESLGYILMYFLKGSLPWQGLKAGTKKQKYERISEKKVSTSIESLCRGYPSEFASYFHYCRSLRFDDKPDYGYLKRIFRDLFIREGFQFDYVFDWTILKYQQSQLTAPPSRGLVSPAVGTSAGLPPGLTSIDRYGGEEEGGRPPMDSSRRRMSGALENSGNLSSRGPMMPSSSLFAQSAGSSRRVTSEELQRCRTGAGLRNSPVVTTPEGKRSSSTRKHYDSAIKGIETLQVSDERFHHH
Kind of assay: AMI‐329 bead binding with AMI‐331 competitor, CKL12. As for the experimental part: as §1, §2

The subject of a further assay is CCA1:LUC seedlings. Description: Bioluminescence-based circadian period lengthening in CCA1:LUC seedlings. In kind it is in vivo, Arabidopsis thaliana. As to the method: Bioluminescence‐based circadian rhythms of CCA1:LUC plants treated with small molecules were analyzed by auto‐luminescence detection (Churitsu CL96) as described previously (Uehara et al., 2019). Period length was automatically calculated as previously described (Kamioka et al., 2016).
To estimate CK1 inhibitor activity in vivo, we choose to measure circadian period‐lengthening activity in Arabidopsis seedlings. The assay was made more efficient by monitoring the circadian period using a clock reporter plant line (CCA1:LUC) and an automated luminometer. These tools can be used to measure the circadian period with high confidence, and estimates of in vivo CK1 inhibitor activity are quantitative (Uehara et al., 2019). Four‐day‐old CCA1:LUC seedlings grown under 12‐hr light/12‐hr dark conditions were treated with IC261, PF‐670462, and PHA767491 at different concentrations, and seedling luminescence was monitored under constant light conditions. Dimethyl sulfoxide (DMSO), the solvent used for all of the CK1 inhibitors, was used as a control. IC261 lengthened the circadian period of CCA1:LUC seedlings in a dose‐dependent manner (Figure 1d), with a 2‐hr period lengthening at 500 µM. PF‐670462 and PHA767491 treatment concentrations also correlated with period lengthening (Figure 1e and f). The concentrations required for 2‐hr lengthening effects were 90 µM for PF‐670472 and 47 µM for PHA767491, which was consistent with previous work (Uehara et al., 2019). Thus, PHA767491 was the strongest in vivo CK1 inhibitor among the three inhibitors tested.

In the next assay the target is T5, CKL1 (AT4G26100) (Arabidopsis thaliana, UniProt P42158).
T5 construct: from tissue; host or cells: Arabidopsis seedlings, two weeks old
T5 sequence (P42158 whole entry): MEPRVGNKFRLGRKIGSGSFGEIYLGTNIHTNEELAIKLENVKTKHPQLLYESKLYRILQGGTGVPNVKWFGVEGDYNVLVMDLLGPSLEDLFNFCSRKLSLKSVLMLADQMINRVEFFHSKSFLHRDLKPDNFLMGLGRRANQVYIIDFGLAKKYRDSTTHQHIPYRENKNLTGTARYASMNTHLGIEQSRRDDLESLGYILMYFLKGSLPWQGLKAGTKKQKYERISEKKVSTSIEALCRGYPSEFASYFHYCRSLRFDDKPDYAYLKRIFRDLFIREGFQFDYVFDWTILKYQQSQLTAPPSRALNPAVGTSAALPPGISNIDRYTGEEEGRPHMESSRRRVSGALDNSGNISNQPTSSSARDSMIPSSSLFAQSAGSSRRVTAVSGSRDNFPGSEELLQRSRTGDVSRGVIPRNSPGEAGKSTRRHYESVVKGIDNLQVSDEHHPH
Kind of assay: AMI‐329 bead binding with AMI‐331 competitor, CKL1. As to the method: as §1, §2

The mark [1] stands for this setting: CCA1:LUC seedlings, constant light.

T1 sequence (Q9CAI5 whole entry): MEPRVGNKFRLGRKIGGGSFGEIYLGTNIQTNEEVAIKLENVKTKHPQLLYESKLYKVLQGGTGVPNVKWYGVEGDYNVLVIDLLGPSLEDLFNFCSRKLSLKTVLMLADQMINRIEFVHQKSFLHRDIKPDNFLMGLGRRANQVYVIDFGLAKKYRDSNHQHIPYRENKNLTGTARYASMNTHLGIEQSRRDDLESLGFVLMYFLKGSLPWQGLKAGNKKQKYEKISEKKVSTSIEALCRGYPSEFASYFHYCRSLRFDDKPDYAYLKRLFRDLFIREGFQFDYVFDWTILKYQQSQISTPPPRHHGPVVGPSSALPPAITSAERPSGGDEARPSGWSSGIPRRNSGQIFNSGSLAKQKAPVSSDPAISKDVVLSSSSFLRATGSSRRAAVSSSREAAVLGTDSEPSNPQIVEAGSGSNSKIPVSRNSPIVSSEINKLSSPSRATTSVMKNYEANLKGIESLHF

In the case of `C#CCn1c2c(c(Br)c1-c1ccncc1)C(=O)NCC2.Cl` [AMI‐331], the “Spectra (PSMs) AMI‐329 beads bound” value at CKL2 (AT1G72710) (competitor AMI‐331 5 µM) was found to be 1 PSMs; at CKL2 (AT1G72710) (competitor AMI‐331 50 µM) it was 0 PSMs; on CKL4 (AT4G28860) (competitor AMI‐331 5 µM) it was 1 PSMs; on CKL4 (AT4G28860) (competitor AMI‐331 50 µM), 0 PSMs; on CKL7 (AT5G44100) (competitor AMI‐331 5 µM), 1 PSMs; at CKL7 (AT5G44100) (competitor AMI‐331 50 µM) it was 0 PSMs. Besides, the “Spectra (PSMs) AMI‐329 beads bound” value at CKL12 (AT5G57015) (competitor AMI‐331 5 µM) is reported as 2 PSMs; on CKL12 (AT5G57015) (competitor AMI‐331 50 µM), 0 PSMs; on CKL1 (AT4G26100) (competitor AMI‐331 5 µM), 2 PSMs; on CKL1 (AT4G26100) (competitor AMI‐331 50 µM), 0 PSMs. Further, the “Spectra on AMI‐329 beads relative to 0 µM sample” value is 13%–85% in the assay on MPK family (5 µM AMI‐331 as competitor) and 0%–31% with MPK family (50 µM AMI‐331 as competitor). In addition, the “Concentration required for 2‐hr period lengthening (2hLC)” value in the assay on CCA1:LUC seedlings (setting [1]) was 0.4 µM. Further, the “Concentration required for 5‐hr period lengthening (5hLC)” value in the assay on CCA1:LUC seedlings (setting [1]) is listed as 1.4 µM. Also, the “Concentration that significantly lengthens the circadian clock period” value in the assay with CCA1:LUC seedlings (in vivo) is “below 1 µM”.
